Measured values taken from PMC6572854, “Convergent allostery in ribonucleotide reductase” (Nature Communications, 2019).

Assays:
[1] = biological target: T1, NrdE (holo-NrdE; class Ib RNR alpha subunit) (Bacillus subtilis, UniProt P50620); assay: crystal structure ([…] Å) and SAXS titration; format: binding; conditions: allosteric; M-site; 5 mM Mg-ATP with TTP and GDP; may have displaced GDP
T1 construct: tagless full-length (C-terminal residue V700), His6-SUMO tag cleaved, E. coli BL21(DE3); holo form co-purifies with dAMP; monomer, I-dimer, S-dimer or filament depending on nucleotides

[2] = biological target: T1, NrdE (holo-NrdE; class Ib RNR alpha subunit); assay: cryo-EM structure ([…] Å) and SAXS titration; format: binding; conditions: allosteric; S-site and I-site; 100 µM dATP, 1 mM CDP, 15 mM MgCl2, pH 7.6; dATP displaces co-purified dAMP at I-site
[3] = biological target: T2, NrdEF (holo-NrdE + Mn-reconstituted NrdF) (Bacillus subtilis, UniProt P50620); assay: cryo-EM structure ([…] Å); format: binding; conditions: allosteric; S-site and I-site of NrdE in NrdEF filament; 100 µM dATP, 1 mM CDP, 15 mM MgCl2, pH 7.6
T2 construct: tagless NrdE (SUMO tag cleaved) plus His6-tagged NrdF, E. coli host; alpha2beta2 asymmetric unit of filament; both nucleotide sites lie on NrdE; NrdF modelled only as C-terminal polyalanine peptide; with Ribonucleoside-diphosphate reductase subunit beta NrdF

[4] = biological target: T1, NrdE (holo-NrdE; class Ib RNR alpha subunit); assay: crystal structure ([…] Å); format: binding; conditions: allosteric; I-site, displacing dAMP; presumed hydrolysis product of added ATP; with TTP and GDP or CDP
[5] = biological target: the molecule itself; assay: SEC-SAXS; 80 µM wt holo-NrdE loaded, 250 µM TTP, 1 mM ATP, assay buffer with 1% glycerol, 4 °C; fit of the dataset to I-dimer, S-dimer and monomer in OLIGOMER
[6] = biological target: T3, Bacillus subtilis NrdE C382S, tagless (Bacillus subtilis, UniProt P50620 1-700, C382S); assay: SAXS titration; 0-20 µM Fe-NrdF titrated to 4 µM C382S holo-NrdE, 50 µM dATP, 1 mM CDP, assay buffer with 5% glycerol, 4 °C; singular value decomposition; conditions: both partners purified
T3 construct: NrdE, α subunit of the class Ib ribonucleotide reductase of Bacillus subtilis, with the catalytic cysteine C382 changed to serine; Used in all SAXS experiments where NrdF was added, to prevent changes in nucleotide concentrations (D1:p2); also called C382S holo-NrdE; C382S NrdE
T3 sequence: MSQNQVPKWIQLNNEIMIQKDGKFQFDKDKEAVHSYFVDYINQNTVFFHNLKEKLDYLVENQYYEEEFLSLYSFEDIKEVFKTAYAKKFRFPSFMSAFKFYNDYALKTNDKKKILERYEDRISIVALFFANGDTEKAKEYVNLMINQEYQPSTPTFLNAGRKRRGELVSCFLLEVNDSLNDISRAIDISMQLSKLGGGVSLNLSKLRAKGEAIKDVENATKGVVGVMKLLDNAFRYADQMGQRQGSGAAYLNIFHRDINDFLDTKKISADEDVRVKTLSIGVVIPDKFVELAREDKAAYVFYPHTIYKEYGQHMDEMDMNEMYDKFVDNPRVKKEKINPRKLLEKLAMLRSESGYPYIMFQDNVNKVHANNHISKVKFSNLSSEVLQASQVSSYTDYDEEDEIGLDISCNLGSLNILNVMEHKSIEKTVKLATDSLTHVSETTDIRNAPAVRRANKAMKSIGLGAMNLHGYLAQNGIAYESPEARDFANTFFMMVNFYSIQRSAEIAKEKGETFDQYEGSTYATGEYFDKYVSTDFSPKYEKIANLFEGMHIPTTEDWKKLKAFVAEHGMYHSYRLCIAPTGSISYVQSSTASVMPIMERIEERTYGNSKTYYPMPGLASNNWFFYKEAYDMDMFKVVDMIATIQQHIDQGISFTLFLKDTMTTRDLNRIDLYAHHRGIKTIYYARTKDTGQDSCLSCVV

[7] = biological target: the molecule itself; assay: SEC-SAXS; stoichiometric mixture of C382S holo-NrdE and NrdF with 1 mM ATP and 250 µM TTP, 4 °C
[8] = biological target: T4, Bacillus subtilis class Ib ribonucleotide reductase alpha subunit NrdE, wild type, tagless (Bacillus subtilis, UniProt P50620 1-700); assay: cryo-EM structure; 20 µM holo-NrdE with 20 or 40 µM Mn-reconstituted NrdF, 100 µM dATP, 1 mM CDP, diluted four-fold; NrdEF filament, 4.7 Å map; conditions: both partners purified
T4 construct: NrdE, alpha subunit of the class Ib ribonucleotide reductase of Bacillus subtilis; tagless after SUMO protease; also called apo-NrdE (dAMP-free)
T4 sequence: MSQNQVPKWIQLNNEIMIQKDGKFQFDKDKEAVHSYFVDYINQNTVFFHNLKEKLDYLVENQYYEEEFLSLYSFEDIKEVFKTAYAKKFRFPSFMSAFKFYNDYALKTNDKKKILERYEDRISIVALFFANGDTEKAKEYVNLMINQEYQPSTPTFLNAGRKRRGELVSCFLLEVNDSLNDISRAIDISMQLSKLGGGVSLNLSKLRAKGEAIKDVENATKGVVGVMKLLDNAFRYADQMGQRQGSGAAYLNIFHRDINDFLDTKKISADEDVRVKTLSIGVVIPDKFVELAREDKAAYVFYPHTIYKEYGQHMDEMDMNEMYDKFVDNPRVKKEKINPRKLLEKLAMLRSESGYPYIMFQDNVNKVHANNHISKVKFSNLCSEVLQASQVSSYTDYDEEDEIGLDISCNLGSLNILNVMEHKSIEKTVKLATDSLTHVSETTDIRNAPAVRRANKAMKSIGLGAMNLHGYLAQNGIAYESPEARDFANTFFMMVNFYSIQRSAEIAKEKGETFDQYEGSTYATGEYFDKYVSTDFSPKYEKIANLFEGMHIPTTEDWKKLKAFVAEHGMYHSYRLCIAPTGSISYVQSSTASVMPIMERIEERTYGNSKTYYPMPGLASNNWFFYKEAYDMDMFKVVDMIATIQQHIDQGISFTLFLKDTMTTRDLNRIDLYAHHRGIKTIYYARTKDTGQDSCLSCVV

Nc1ncnc2c1ncn2[C@@H]1O[C@H](COP(=O)(O)OP(=O)(O)OP(=O)(O)O)[C@@H](O)[C@H]1O [ATP]
crystal structure (2.50, 2.55 Å) and SAXS titration [1]: we also observed nearby electron density for an ATP ligand with the adenine ring positioned

Nc1ncnc2c1ncn2[C@H]1C[C@H](O)[C@@H](COP(=O)(O)OP(=O)(O)OP(=O)(O)O)O1 [dATP]
cryo-EM structure (6 Å) and SAXS titration [2]: For both filaments, excess density at the S-site was modeled as dATP
cryo-EM structure (4.7 Å) [3]: a dATP molecule at each S- and I-site

Nc1ncnc2c1ncn2[C@@H]1O[C@H](COP(=O)(O)OP(=O)(O)O)[C@@H](O)[C@H]1O [ADP]
crystal structure (2.50, 2.55, 2.95 Å) [4]: Electron density at the I-site showed strong evidence for an ADP ligand displacing dAMP

B1: Bacillus subtilis class Ib ribonucleotide reductase NrdE (α subunit), wild type, tagless (enzyme)
chain: MSQNQVPKWIQLNNEIMIQKDGKFQFDKDKEAVHSYFVDYINQNTVFFHNLKEKLDYLVENQYYEEEFLSLYSFEDIKEVFKTAYAKKFRFPSFMSAFKFYNDYALKTNDKKKILERYEDRISIVALFFANGDTEKAKEYVNLMINQEYQPSTPTFLNAGRKRRGELVSCFLLEVNDSLNDISRAIDISMQLSKLGGGVSLNLSKLRAKGEAIKDVENATKGVVGVMKLLDNAFRYADQMGQRQGSGAAYLNIFHRDINDFLDTKKISADEDVRVKTLSIGVVIPDKFVELAREDKAAYVFYPHTIYKEYGQHMDEMDMNEMYDKFVDNPRVKKEKINPRKLLEKLAMLRSESGYPYIMFQDNVNKVHANNHISKVKFSNLCSEVLQASQVSSYTDYDEEDEIGLDISCNLGSLNILNVMEHKSIEKTVKLATDSLTHVSETTDIRNAPAVRRANKAMKSIGLGAMNLHGYLAQNGIAYESPEARDFANTFFMMVNFYSIQRSAEIAKEKGETFDQYEGSTYATGEYFDKYVSTDFSPKYEKIANLFEGMHIPTTEDWKKLKAFVAEHGMYHSYRLCIAPTGSISYVQSSTASVMPIMERIEERTYGNSKTYYPMPGLASNNWFFYKEAYDMDMFKVVDMIATIQQHIDQGISFTLFLKDTMTTRDLNRIDLYAHHRGIKTIYYARTKDTGQDSCLSCVV
notes: NrdE, α subunit of the class Ib ribonucleotide reductase of Bacillus subtilis; holo-NrdE carries the co-purified dAMP ligand, apo-NrdE is nucleotide-free; same polypeptide; also called wt apo-NrdE (dAMP-free)
stoichiometry N [5]: 2

B2: Bacillus subtilis class Ib ribonucleotide reductase NrdF (β subunit), His6-tagged, metal-reconstituted (enzyme)
chain: MTKIYDAANWSKHEDDFTQMFYNQNVKQFWLPEEIALNGDLLTWKYLGKNEQDTYMKVLAGLTLLDTEQGNTGMPIVAEHVDGHQRKAVLNFMAMMENAVHAKSYSNIFMTLAPTETINEVFEWVKQNKYLQKKAQMIVGLYKAIQKDDEISLFKAMVASVYLESFLFYSGFYYPLYFYGQGKLMQSGEIINLILRDEAIHGVYVGLLAQEIYNKQTEEKKAELREFAIDLLNQLYENELEYTEDLYDQVGLSHDVKKFIRYNANKALMNLGFDPYFEEEDINPIVLNGLNTKTKSHDFFSMKGNGYKKATVEPLKDDDFYFEDEKEQI
notes: NrdF, β subunit of the class Ib ribonucleotide reductase of Bacillus subtilis; Fe-NrdF was used in the subunit titration, Mn-NrdF in SEC-SAXS and cryo-EM; also called Fe-NrdF; Mn-NrdF; source: produced in a similar manner as NrdE but without the tag cleavage steps, purified; reconstituted with Fe(III)2-Y• or Mn(III)2-Y•, MonoQ
stoichiometry N [6]: ~1 NrdF per NrdE (subunits)

B3: Bacillus subtilis class Ib ribonucleotide reductase beta subunit NrdF, His6-tagged, metal-reconstituted (enzyme)
chain: MTKIYDAANWSKHEDDFTQMFYNQNVKQFWLPEEIALNGDLLTWKYLGKNEQDTYMKVLAGLTLLDTEQGNTGMPIVAEHVDGHQRKAVLNFMAMMENAVHAKSYSNIFMTLAPTETINEVFEWVKQNKYLQKKAQMIVGLYKAIQKDDEISLFKAMVASVYLESFLFYSGFYYPLYFYGQGKLMQSGEIINLILRDEAIHGVYVGLLAQEIYNKQTEEKKAELREFAIDLLNQLYENELEYTEDLYDQVGLSHDVKKFIRYNANKALMNLGFDPYFEEEDINPIVLNGLNTKTKSHDFFSMKGNGYKKATVEPLKDDDFYFEDEKEQI
notes: NrdF, beta subunit of the class Ib ribonucleotide reductase of Bacillus subtilis; Fe-NrdF in the SAXS subunit titration, Mn-reconstituted NrdF in cryo-EM; also called Fe-NrdF
binding result [7]: binds
binding result [8]: binds
